Measurements taken from patent US7345026B2, “Hybrid or chimeric polynucleotides, proteins, and compositions comprising hepatitis B virus sequences” (Institut Pasteur, priority 1999, dated 2008).
Several values for one entry are separate records, joined by “and”; a condition that tells them apart may be missing. Equal entries are not always repeated. Entries after “also recorded” stand apart in the source; their conditions may differ. Where two headings read alike, the source gives them in different places.

Key:
[1] = test system: HHD-transfected RMA-S cells loaded with relevant peptides; design: species or system HHD mice; details: in vivo
[2] = test system: peptide-loaded HHD-transfected RMA-S cells; design: species or system HHD mice; details: mouse, in vivo
[3] = test system: HHD-transfected RMA-S target cells loaded with relevant peptides; design: species or system HHD mice; details: mouse, in vivo
[4] = test system: HHD-transfected RMA-S cells loaded with relevant peptides; design: species or system A2A2Kb mice; details: in vivo, sc
[5] = test system: HHD-transfected RMAS cells loaded with relevant peptides; design: species or system HHD mice; details: mouse, in vivo, iv
[6] = test system: HHD-transfected RMAS cells loaded with relevant peptides; design: species or system HHD mice; details: mouse, in vivo
[7] = test system: HHD-transfected RMAS cells loaded with relevant peptides; design: species or system HHD mice; details: mouse, in vivo; remark: listed apart in the source
[8] = molecular target: HLA-A2.1 molecules (Homo sapiens, UniProt P04439, D140Y/D185E/D98H/E176V/E277Q/G131W/G231S/I119V/I121R/I166T/I218V/L300P/L318F/N151K/N90K/P208A/P217A/Q86G/Q94H/R138H/R169H/T345S)

| Sequence | CTL inducer hierarchy (in words) ([1]; mouse) | CTL response against the epitope after polyepitope immunization (in words) [2] | lysis in % [3] | CTL response when co-injected with helper peptide (in words) [3] | other results |
| --- | --- | --- | --- | --- | --- |
| IISAVVGIL (listed as Homo sapiens) [Her2/neu.654] | weak | – | – | – | lysis in % (maximal lysis observed for each responder mouse) ([1]; sc): (42) % |
| ILTVILGVL (listed as Homo sapiens) [Melan-A/MART-1.32] | inefficient | No specific lysis; also recorded: did not elicit CTL responses | – | – | – |
| ITDQVPFSV [gp100.209] | weak | – | (31, 36, 56) % | – | lysis in % (maximal lysis observed for each responder mouse) ([1]; sc): (23) % |
| KTWGQYWQV [gp100.154] | strong | Strong responses | (43, 59, 60, 64, 77. 77, 80, 82, 85) % | stronger responses in a larger proportion of mice | – |
| LLDGTATLRL [gp100.457] | inefficient | Significant responses | (14, 35, 43, 77, 79) % | good CTL responses in a large proportion of mice; also recorded: strong CTL-inducers when associated with a helper peptide | – |
| LLGRNSFEV (listed as Homo sapiens) [p53.264] | inefficient; also recorded: poor CTL-induction capacity | – | (37, 64) % | – | – |
| MLLAVLYCL (listed as Homo sapiens) [Tyrosinase.1] | inefficient | No specific lysis; also recorded: did not elicit CTL responses | (27, 33, 40, 42, 51) % | good CTL responses in a large proportion of mice | – |
| RMPEAAPPV (listed as Homo sapiens) [p53.65] | intermediate | – | (29, 31, 40, 41, 55) % | stronger responses in a larger proportion of mice | – |
| STPPPGTRV (listed as Homo sapiens) [p53.149] | inefficient | – | (20, 51, 71) % | – | – |
| TLGIVCPI (listed as Homo sapiens) [HPV E7.86] | inefficient | – | (34, 48) % | – | lysis in % (maximal lysis observed for each responder mouse) [4]: (10, 13) % |
| VLPDVFIRC (listed as Homo sapiens) [NA17-A.nt38] | intermediate | Strong responses | (36, 39, 61,64, 71) % | stronger responses in a larger proportion of mice | lysis in % (highest specific lysis) [5]: 0 (6) % and 3 (5) % and 5 (24) % and 3 (9) % and 6 (7) % and 0 (2) %; lysis in % following a second in vitro restimulation (numbers in parentheses) [5]: 0 (6) % and 3 (5) % and 5 (24) % and 3 (9) % and 6 (7) % and 0 (2) % |
| VLYRYGSFSV (listed as Homo sapiens) [gp100.476] | weak | did not elicit CTL responses | (20, 22, 59, 63, 75, 79) % | – | lysis in % (maximal lysis observed for each responder mouse) [4]: (29) %; lysis in % (maximal lysis observed for each responder mouse) ([1]; sc): (54, 70) % |
| YLEPGPVTA [gp100.280] | weak | No specific lysis; also recorded: did not elicit CTL responses | (12, 16) % | – | CTL responses (in words) [6]: Some responses of weak to strong magnitude; lysis in % (highest specific lysis) [5]: 0 (1) % and 0 (0) %; lysis in % following a second in vitro restimulation (numbers in parentheses) [5]: 0 (1) % and 0 (0) %; CTL responses (in words) [7]: Some responses of weak to strong magnitude |
| YLSGANLNL (listed as Homo sapiens) [CEA.571] | strong | – | (20, 32, 46) % | less immunogenic | lysis in % (highest specific lysis) [5]: 4 (1) % and 1 (5) % and 1 (2) % and 0 (0) % and 2 (0) % and 4 (22) %; lysis in % following a second in vitro restimulation (numbers in parentheses) [5]: 4 (1) % and 1 (5) % and 1 (2) % and 0 (0) % and 2 (0) % and 4 (22) % |
| YMDGTMSQV [Tyrosinase.368-D] | weak | elicited CTL responses depending on mice | (13, 15) % | – | lysis in % (maximal lysis observed for each responder mouse) ([1]; sc): (10) %; CTL responses (in words) [7]: Some responses of weak to strong magnitude |
| YMNGTMSOV (YMNGTMSV; listed as Homo sapiens) [Tyrosinase.368-N] | intermediate | – | (21, 36, 70, 72, 78) % | – | R/T (responder versus tested mice) ([4]; mouse): 0/6; RA (relative affinity) [8]: 2.2; R/T (responder versus tested mice) ([1]; mouse, sc): 4/15; R/T (responder versus tested mice) ([3]; sc): 5/12 |
